# In paper doi:10.1101/2021.04.08.439011v1 (biorxiv, 2021):
# How the values were obtained:
# [1] = molecular target: AURKA (Homo sapiens, UniProt O14965); details: 1 µM; binder
# [2] = molecular target: BMPR2 (Homo sapiens, UniProt Q13873); details: 1 µM; binder
# [3] = molecular target: CHEK1 (Homo sapiens, UniProt O14757); details: 1 µM; binder
# [4] = molecular target: DAPK3 (Homo sapiens, UniProt O43293); details: 1 µM; binder
# [5] = molecular target: DCAMKL3 (Homo sapiens, UniProt Q9C098); details: 1 µM; binder
# [6] = molecular target: DYRK2 (Homo sapiens, UniProt Q92630); details: 1 µM; binder
# [7] = molecular target: ERK5 (Homo sapiens, UniProt Q13164); details: 1 µM; binder
# [8] = molecular target: FGFR3(G697C) (Homo sapiens, UniProt P22607, G697C); details: 1 µM; binder
# [9] = molecular target: ICK (Homo sapiens, UniProt Q9UPZ9); details: 1 µM; binder
# [10] = molecular target: JNK2 (Homo sapiens, UniProt P45984); details: 1 µM; binder
# [11] = molecular target: KIT-autoinhibited (Homo sapiens, UniProt P10721); details: 1 µM; binder
# [12] = molecular target: LIMK1 (Homo sapiens, UniProt P53667); details: 1 µM; binder
# [13] = molecular target: LOK (Homo sapiens, UniProt O94804); details: 1 µM; binder
# [14] = molecular target: MEK5 (Homo sapiens, UniProt Q13163); details: 1 µM; binder
# [15] = molecular target: MERTK (Homo sapiens, UniProt Q12866); details: 1 µM; binder
# [16] = molecular target: MYO3A (Homo sapiens, UniProt Q8NEV4); details: 1 µM; binder
# [17] = molecular target: PAK4 (Homo sapiens, UniProt O96013); details: 1 µM; binder
# [18] = molecular target: PDGFRA (Homo sapiens, UniProt P16234); details: 1 µM; binder
# [19] = molecular target: PIK3CA (Homo sapiens, UniProt P42336); details: 1 µM; binder
# [20] = molecular target: PIK3CA(E542K) (Homo sapiens, UniProt P42336, E542K); details: 1 µM; binder
# [21] = molecular target: PRKCE (Homo sapiens, UniProt Q02156); details: 1 µM; binder
# [22] = molecular target: RPS6KA4 (Homo sapiens, UniProt O75676); details: Kin.Dom.1 N-terminal; binder
# [23] = molecular target: SRPK1 (Homo sapiens, UniProt Q96SB4); details: 1 µM; binder
# [24] = molecular target: SRPK2 (Homo sapiens, UniProt P78362); details: 1 µM; binder
# [25] = molecular target: SRPK3 (Homo sapiens, UniProt Q9UPE1); details: 1 µM; binder
# [26] = molecular target: TBK1 (Homo sapiens, UniProt Q9UHD2); details: 1 µM; binder
# [27] = molecular target: TESK1 (Homo sapiens, UniProt Q15569); details: 1 µM; binder
# [28] = molecular target: TNK2 (Homo sapiens, UniProt Q07912); details: 1 µM; binder
# [29] = molecular target: YES (Homo sapiens, UniProt P07947); details: 1 µM; binder
# [30] = molecular target: p38-delta (Homo sapiens, UniProt O15264); details: 1 µM; binder
# SRPK3, sequence (Q9UPE1 whole entry): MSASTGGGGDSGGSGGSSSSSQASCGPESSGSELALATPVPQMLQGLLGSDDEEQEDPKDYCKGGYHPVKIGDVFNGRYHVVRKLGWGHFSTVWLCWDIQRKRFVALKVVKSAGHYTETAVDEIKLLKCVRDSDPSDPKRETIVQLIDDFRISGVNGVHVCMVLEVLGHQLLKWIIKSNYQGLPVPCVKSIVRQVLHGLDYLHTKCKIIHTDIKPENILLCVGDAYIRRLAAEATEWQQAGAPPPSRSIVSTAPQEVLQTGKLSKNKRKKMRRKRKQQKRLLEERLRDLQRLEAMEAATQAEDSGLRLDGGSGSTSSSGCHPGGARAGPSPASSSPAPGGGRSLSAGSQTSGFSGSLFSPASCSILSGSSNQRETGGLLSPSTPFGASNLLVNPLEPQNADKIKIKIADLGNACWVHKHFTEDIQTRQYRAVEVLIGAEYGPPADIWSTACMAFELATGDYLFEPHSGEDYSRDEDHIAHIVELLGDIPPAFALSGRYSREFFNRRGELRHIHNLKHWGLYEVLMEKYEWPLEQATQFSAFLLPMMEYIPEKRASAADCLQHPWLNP
# ERK5, sequence (Q13164 whole entry): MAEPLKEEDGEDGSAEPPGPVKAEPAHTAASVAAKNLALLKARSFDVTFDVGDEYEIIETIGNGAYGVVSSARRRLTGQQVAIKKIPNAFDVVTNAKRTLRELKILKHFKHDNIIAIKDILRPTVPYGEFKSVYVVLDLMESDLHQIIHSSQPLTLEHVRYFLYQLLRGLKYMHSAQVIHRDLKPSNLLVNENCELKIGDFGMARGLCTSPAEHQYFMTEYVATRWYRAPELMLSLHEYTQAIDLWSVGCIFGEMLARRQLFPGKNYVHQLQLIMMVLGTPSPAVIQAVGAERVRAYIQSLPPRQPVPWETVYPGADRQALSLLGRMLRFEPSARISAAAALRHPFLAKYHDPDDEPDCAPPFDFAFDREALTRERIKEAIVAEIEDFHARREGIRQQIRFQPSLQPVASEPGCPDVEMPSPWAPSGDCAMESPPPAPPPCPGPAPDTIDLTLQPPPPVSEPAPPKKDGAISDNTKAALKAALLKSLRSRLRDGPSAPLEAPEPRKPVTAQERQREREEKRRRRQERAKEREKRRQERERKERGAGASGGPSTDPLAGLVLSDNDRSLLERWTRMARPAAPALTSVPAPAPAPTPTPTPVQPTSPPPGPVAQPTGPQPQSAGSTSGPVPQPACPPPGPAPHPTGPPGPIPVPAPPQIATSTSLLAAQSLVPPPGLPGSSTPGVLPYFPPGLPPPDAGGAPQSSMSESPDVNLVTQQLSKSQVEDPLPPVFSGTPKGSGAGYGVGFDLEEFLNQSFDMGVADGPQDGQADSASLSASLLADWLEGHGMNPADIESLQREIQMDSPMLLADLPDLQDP
# SRPK1, sequence (Q96SB4 whole entry): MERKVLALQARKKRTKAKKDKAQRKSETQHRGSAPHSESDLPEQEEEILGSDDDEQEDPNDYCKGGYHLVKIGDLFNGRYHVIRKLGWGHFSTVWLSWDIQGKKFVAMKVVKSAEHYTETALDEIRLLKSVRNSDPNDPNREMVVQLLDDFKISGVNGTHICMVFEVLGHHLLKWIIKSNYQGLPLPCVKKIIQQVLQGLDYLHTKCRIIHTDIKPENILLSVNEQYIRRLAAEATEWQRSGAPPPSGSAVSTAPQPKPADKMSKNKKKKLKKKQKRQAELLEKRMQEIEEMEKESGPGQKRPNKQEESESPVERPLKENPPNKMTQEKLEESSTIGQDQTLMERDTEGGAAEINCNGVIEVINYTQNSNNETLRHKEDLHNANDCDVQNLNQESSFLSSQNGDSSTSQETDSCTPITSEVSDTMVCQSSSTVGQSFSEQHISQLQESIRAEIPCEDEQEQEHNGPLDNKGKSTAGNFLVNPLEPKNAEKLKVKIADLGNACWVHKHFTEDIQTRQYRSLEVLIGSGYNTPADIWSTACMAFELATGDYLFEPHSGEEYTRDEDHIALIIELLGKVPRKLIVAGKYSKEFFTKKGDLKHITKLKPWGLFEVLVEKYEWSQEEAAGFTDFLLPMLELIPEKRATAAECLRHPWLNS
# FGFR3(G697C), sequence (P22607 whole entry G697C): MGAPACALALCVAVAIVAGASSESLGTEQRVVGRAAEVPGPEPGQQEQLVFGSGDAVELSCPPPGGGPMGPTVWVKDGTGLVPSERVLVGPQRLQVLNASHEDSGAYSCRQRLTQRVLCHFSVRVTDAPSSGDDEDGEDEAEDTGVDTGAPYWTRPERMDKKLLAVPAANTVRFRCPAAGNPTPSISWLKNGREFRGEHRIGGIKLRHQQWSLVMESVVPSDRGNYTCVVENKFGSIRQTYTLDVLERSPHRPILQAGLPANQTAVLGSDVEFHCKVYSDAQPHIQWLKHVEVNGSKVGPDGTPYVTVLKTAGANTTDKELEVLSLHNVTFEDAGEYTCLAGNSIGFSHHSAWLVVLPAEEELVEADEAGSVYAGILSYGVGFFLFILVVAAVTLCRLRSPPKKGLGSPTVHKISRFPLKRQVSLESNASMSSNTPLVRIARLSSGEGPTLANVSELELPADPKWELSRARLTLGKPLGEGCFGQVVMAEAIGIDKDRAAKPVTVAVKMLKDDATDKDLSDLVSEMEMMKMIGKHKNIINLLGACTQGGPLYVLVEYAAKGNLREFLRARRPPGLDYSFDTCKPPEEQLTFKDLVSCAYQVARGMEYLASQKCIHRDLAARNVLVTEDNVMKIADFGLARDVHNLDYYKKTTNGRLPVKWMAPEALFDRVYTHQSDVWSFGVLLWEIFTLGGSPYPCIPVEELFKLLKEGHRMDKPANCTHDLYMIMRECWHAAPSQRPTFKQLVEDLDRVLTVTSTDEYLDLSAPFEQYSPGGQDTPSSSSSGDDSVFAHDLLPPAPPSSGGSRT
# YES, sequence (P07947 whole entry): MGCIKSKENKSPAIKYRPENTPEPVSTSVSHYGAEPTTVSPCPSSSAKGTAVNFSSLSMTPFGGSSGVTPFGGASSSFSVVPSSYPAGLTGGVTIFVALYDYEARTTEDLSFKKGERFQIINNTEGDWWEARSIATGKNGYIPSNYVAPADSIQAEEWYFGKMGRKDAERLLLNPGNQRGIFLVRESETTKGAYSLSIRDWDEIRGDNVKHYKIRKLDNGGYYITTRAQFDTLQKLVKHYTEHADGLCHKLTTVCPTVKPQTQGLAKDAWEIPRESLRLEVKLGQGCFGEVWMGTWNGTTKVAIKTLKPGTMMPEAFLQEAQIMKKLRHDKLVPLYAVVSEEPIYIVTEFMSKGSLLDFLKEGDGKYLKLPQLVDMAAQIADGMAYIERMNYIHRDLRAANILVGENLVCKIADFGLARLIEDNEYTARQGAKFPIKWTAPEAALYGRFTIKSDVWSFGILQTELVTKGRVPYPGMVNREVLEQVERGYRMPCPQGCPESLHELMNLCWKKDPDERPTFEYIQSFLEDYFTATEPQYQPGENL
# PRKCE, sequence (Q02156 whole entry): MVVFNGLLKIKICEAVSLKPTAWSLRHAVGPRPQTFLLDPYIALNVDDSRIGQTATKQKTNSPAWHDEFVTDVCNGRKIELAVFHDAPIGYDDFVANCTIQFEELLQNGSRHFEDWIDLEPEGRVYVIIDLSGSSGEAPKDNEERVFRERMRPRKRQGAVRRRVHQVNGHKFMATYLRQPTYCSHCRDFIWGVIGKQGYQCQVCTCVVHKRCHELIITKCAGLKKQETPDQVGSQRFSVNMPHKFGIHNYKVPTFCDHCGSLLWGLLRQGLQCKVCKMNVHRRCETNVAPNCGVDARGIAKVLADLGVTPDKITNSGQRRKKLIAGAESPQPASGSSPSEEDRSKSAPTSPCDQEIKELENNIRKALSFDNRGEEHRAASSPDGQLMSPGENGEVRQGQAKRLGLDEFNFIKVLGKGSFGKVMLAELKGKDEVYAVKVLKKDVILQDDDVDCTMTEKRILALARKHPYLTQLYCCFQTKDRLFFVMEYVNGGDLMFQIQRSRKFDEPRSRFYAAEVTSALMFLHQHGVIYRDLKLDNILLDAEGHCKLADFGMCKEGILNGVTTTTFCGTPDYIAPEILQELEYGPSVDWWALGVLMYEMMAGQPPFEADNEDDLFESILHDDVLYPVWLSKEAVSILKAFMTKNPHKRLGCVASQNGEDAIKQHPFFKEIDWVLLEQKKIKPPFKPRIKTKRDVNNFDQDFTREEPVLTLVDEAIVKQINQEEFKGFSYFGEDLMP
# TESK1, sequence (Q15569 whole entry): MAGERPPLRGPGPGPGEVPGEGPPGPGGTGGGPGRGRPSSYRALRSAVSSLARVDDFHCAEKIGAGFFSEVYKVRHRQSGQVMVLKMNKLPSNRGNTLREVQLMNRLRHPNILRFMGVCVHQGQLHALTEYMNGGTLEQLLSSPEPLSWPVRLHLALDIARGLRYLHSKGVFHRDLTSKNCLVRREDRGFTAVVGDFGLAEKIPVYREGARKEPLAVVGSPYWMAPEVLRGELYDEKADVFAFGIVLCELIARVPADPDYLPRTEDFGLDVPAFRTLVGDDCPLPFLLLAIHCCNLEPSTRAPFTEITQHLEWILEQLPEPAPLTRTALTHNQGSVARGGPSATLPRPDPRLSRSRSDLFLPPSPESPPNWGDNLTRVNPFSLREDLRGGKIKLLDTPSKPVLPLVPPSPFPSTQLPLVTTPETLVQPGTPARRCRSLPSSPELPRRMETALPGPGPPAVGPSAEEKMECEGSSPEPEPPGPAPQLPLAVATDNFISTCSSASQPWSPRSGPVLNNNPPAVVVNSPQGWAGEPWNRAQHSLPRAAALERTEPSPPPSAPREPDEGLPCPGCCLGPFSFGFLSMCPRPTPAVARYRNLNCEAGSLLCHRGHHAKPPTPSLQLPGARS
compound,measurement,setting,value
"CNc1ncc2cc(-c3ccc(-c4cccc(C)n4)cc3Cl)c(=O)n(C[C@H]3OC[C@H](N)CO3)c2n1 [compound 6, G-5555]",Percent Control,[1],43%
same,Percent Control,[2],100%
same,Percent Control,[3],100%
same,Percent Control,[4],100%
same,Percent Control,[5],0.5%
same,Percent Control,[6],100%
same,Percent Control,[7],52%
same,Percent Control,[8],100%
same,Percent Control,[9],100%
same,Percent Control,[10],75%
same,Percent Control,[11],81%
same,Percent Control,[12],59%
same,Percent Control,[13],2.1%
same,Percent Control,[14],0.2%
same,Percent Control,[15],100%
same,Percent Control,[16],96%
same,Percent Control,[17],77%
same,Percent Control,[18],96%
same,Percent Control,[19],100%
same,Percent Control,[20],100%
same,Percent Control,[21],71%
same,Percent Control,[22],100%
same,Percent Control,[23],98%
same,Percent Control,[24],70%
same,Percent Control,[25],100%
same,Percent Control,[26],68%
same,Percent Control,[27],99%
same,Percent Control,[28],86%
same,Percent Control,[29],100%
same,Percent Control,[30],100%
